# Results taken from PubChem BioAssay (NCI).
# Values joined by “and” are separate entries in the source; they are usually repeats but may differ in a detail not shown here. Identical values can stand only once.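 Interpolation was linear, between the two tested concentrations surrounding the appropriate level; five concentrations were tested over 48 hours in 96-well plates. GI50 is the concentration that inhibits growth by half. At the TGI there is no net growth.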
# Tests used:
# Test in all cases: inhibition of tumour cell growth, NCI panel, 48 h
# HCT-116 colon = tested on: HCT-116 colon
# KM20L2 colon = tested on: KM20L2 colon
# SK-MEL-2 melanoma = tested on: SK-MEL-2 melanoma
# HL-60(TB) leukemia = tested on: HL-60(TB) leukemia
# KM12 colon = tested on: KM12 colon
# U251 CNS = tested on: U251 CNS
# M19-MEL melanoma = tested on: M19-MEL melanoma
# CAKI-1 renal = tested on: CAKI-1 renal
# OVCAR-5 ovarian = tested on: OVCAR-5 ovarian
# BT-549 breast = tested on: BT-549 breast
Compound,TGI (HCT-116 colon),TGI (KM20L2 colon),TGI (SK-MEL-2 melanoma),TGI (HL-60(TB) leukemia),TGI (KM12 colon),TGI (U251 CNS),TGI (M19-MEL melanoma),TGI (CAKI-1 renal),TGI (OVCAR-5 ovarian),GI50 (HCT-116 colon),GI50 (SK-MEL-2 melanoma),GI50 (HL-60(TB) leukemia),GI50 (KM12 colon),GI50 (U251 CNS),GI50 (CAKI-1 renal),GI50 (BT-549 breast),TGI (BT-549 breast),GI50 (OVCAR-5 ovarian)
CN1CCN(C)C12C=CC=CC21CC1,> 100 µM,> 100 µM,> 100 µM,> 100 µM,> 100 µM,> 100 µM,> 100 µM,> 100000 nM,> 100 µM,–,–,–,–,–,–,–,–,–
COC(=O)C1=C(C(=O)OC)C2(C)Nc3ccccc3C2=C(c2ccccc2)C1 (centres undefined),44 µM,74.3 µM,39 µM,41.5 µM,30.3 µM,41.6 µM,46 µM,–,62.7 µM,–,–,–,–,–,–,–,–,–
CCCCCCCCCCCCCCCCC(=O)O.CCCCCCCCCCCCCCCCCC(=O)O.CCCCCCCCCCCCCCCCCC(=O)O.CCCCCCCCCCCCCCCCCC(=O)O.CCCCCCCCCCCCCCCCCC(=O)O.CO[CH-]OC12COC1CC(O)C1(C)C(O)C(OC(C)O)C3=C(C)C(OC(=O)C(O)C([NH-])c4ccccc4)CC(O)(C(OC(=O)c4ccccc4)C21)C3(C)C.[Cu+].[Zn].[Zn].[Zn].[Zn].[Zn] (centres undefined),> 25 µM,–,11.2 µM,> 25 µM,> 25 µM,4.09 µM,–,> 25000 nM,4.22 µM,3.09 nM,< 11.8 nM,4.66 nM,6.56 nM,8.51 nM,51.3 nM,9.47 nM,3.95 µM,11.3 nM
CC(=O)N1N=C2/C(=C/c3ccc(Cl)cc3)CC(C)CC2C1c1ccc(Cl)cc1 (centres undefined),25.2 µM,–,36.7 µM,59.5 µM,67.1 µM,86.8 µM,–,> 100000 nM,> 100 µM,12600 nM,17400 nM,13500 nM,21400 nM,25100 nM,44300 nM,17000 nM,34.2 µM,43400 nM
CCCCCCCCn1ccc2cc(NC(=O)Cn3cc(CN4CCCCC4)nn3)ccc21,3.19 µM,–,3.68 µM,4.15 µM,5 µM,3.34 µM,–,2990 nM,3.71 µM,1700 nM,1900 nM,1980 nM,2230 nM,1780 nM,1520 nM,10200 nM,23.2 µM,1780 nM
CN1C/C=C/CCOc2cccc(c2)-c2ccnc(n2)Nc2cccc(c2)C1,1.08 µM,–,0.125 µM,0.0941 µM,0.176 µM,1.07 µM,–,460 nM,2.08 µM,27.7 nM,37.4 nM,25.9 nM,33.3 nM,42.1 nM,39 nM,39.8 nM,0.21 µM,32.3 nM
N/N=c1\c2ccccc2c2cc3c(cc12)/c(=N/N)c1ccccc13,> 100 µM,> 100 µM,> 100 µM,> 100 µM,> 100 µM,> 100 µM,> 100 µM,–,> 100 µM,–,–,–,–,–,–,–,–,–
Clc1ccc(-c2c(C3=NCCCN3)nnn2-c2ccccc2)cc1,> 100 µM,> 100 µM,> 100 µM,36.6 µM,> 100 µM,> 100 µM,> 100 µM,> 100000 nM,> 100 µM,–,–,–,–,–,–,–,–,–
CC1(c2ccccc2)CC(c2cccc([N+](=O)[O-])c2)=NO1 (centres undefined),> 100 µM,–,> 100 µM,–,> 100 µM,> 100 µM,> 100 µM,–,> 100 µM,–,–,–,–,–,–,–,–,–
O=C1c2ccccc2-c2c1c1ccccc1c(=O)n2CCCNCCCCNCCCN1C(=O)c2ccccc2C2C(=O)c3ccccc3C21 (centres undefined),0.421 µM,–,3.82 µM,1.17 µM,1.41 µM,0.767 µM,–,1130 nM,1.19 µM,23.1 nM,1040 nM,203 nM,270 nM,75.6 nM,447 nM,854 nM,2.04 µM,570 nM
COc1cc(-c2cc(-c3cc(OC)c(OC)c(OC)c3)nc3nc(N)[nH]c(=O)c23)ccc1Oc1ccnc2cc(Cl)ccc12,22.2 µM,–,7.68 µM,8.22 µM,14.9 µM,7.32 µM,–,> 100000 nM,> 100 µM,1290 nM,2250 nM,2450 nM,548 nM,2460 nM,2700 nM,2910 nM,20.8 µM,4760 nM
CC#CC1C2CCCC1(CSc1ccccc1)NC(=O)O2 (centres undefined),> 100 µM,> 100 µM,> 100 µM,> 100 µM,> 100 µM,> 100 µM,> 100 µM,> 100000 nM,> 100 µM,–,–,–,–,–,–,–,–,–
Cc1c(O)c2c(c(O)c1Br)C(=O)C=CC2=O,0.817 µM and 2.16 µM,–,4.45 µM,0.113 µM and 0.016 µM,3.14 µM and 13.3 µM,3.09 µM and 3.99 µM,–,894 nM and 382 nM,3.19 µM and 3.92 µM,1010 nM,1930 nM,–,3550 nM,–,160 nM,–,1.3 µM,1950 nM
NC(N)=N/N=C/c1ccc(-c2ccc(-c3cc(Cl)cc(Cl)c3)s2)cc1,2.99 µM,–,4.77 µM,3.59 µM,3.56 µM,4.04 µM,–,3310 nM,3.02 µM,1310 nM,2080 nM,1680 nM,1870 nM,1890 nM,1580 nM,2370 nM,7.02 µM,1590 nM
